Test results as given in patent US8283310B2, “Hepatitis C virus inhibitors” (priority 2008, dated 2012).

Key:
[1] = system: HCV strain 1b replicon in HUH-7 cells; test: HCV replicon luciferase reporter assay, genotype 1b; type: cell-based; details: Hepatitis C virus, Huh-7, 72 h, read-out: 1a/1b EC50 (nM): 1b
Text: An HCV replicon whole cell system was established as described by Lohmann V, Korner F, Koch J, Herian U, Theilmann L, Bartenschlager R., Science 285(5424):110-3 (1999). This system enabled us to evaluate the effects of our HCV Protease compounds on HCV RNA replication. Briefly, using the HCV strain 1b sequence described in the Lohmann paper (Assession number: AJ238799), an HCV cDNA was synthesized by Operon Technologies, Inc. (Alameda, Calif.), and the full-length replicon was then assembled in plasmid pGem9zf(+) (Promega, Madison, Wis.) using standard molecular biology techniques. […]
(§1) The HCV replicon luciferase assay was developed to monitor the inhibitory effects of compounds described in the disclosure on HCV viral replication. […] After 3 days incubation at 37° C., cells were analyzed for Renilla Luciferase activity using the EnduRen as substrate (Promega cat 4E6485). […] The plates were incubated for 2 hrs at 37° C. and then read immediately for 30 seconds on the Viewlux Imager (PerkinElmer) using a luminescence program. […] The fluorescence signal from each well was read, with an excitation wavelength at 525/10 nm and an emission wavelength of 598/10 nm, on the Viewlux Imager.
(§2) The percentage inhibition was calculated using the formula below:
(§3) [formula] The values were graphed and analyzed using XLfit to obtain the EC50 value.

[2] = biological target: T1, HCV NS3/4A protease complex (Hepatitis C virus genotype 1a, UniProt P27958, C1454S/C1711G); test: FRET peptide assay to monitor HCV NS3/4A proteolytic activity; type: biochemical; details: recombinant NS3/4A protease complex, RET S1 FRET peptide substrate; strain not given
T1 construct: DNA encoding the recombinant HCV NS3/4A protease complex (amino acids 1027 to 1711) for these strains; inferred from pET21b vector and Ni-NTA purification; made in house; host or cells: Escherichia coli BL21 (DE3), pET21b
Text: HCV NS3 protease complexes, derived from the BMS strain, H77 strain or J4L65 strain, were generated, as described below. These purified recombinant proteins were generated for use in a homogeneous assay (see below) to provide an indication of how effective compounds of the present disclosure would be in inhibiting HCV NS3 proteolytic activity.
The H77 and J4L6S strains were used for production of recombinant NS3/4A protease complexes. DNA encoding the recombinant HCV NS3/4A protease complex (amino acids 1027 to 1711) for these strains was manipulated as described by P. Gallinari et al. (see Gallinari P, Paolini C, Brennan D, Nardi C, Steinkuhler C, De Francesco R. Biochemistry. 38(17):5620-32, (1999)). Briefly, a three-lysine solubilizing tail was added at the 3′-end of the NS4A coding region. The cysteine in the P1 position of the NS4A-NS4B cleavage site (amino acid 1711) was changed to a glycine to avoid the proteolytic cleavage of the lysine tag. Furthermore, a cysteine to serine mutation was introduced by PCR at amino acid position 1454 to prevent the autolytic cleavage in the NS3 helicase domain. […]

[3] = system: HCV genotype 1a replicon (H77) in HUH-7 cells; test: HCV replicon luciferase reporter assay, genotype 1a; type: cell-based; details: Hepatitis C virus, Huh-7, 72 h, read-out: 1a/1b EC50 (nM): 1a
Text: A stable HCV genotype 1a replicon cell line was generated with a similar genomic map as described above for the 1b replicon cell line. An additional adaptive substitution at position 1496 (proline to leucine) was also introduced (Lemm J A, Liu M, Rose R E, Fridell R, O′Boyle Ii D R, Colonno R, Gao M. Intervirology. 2005 48(2-3):183-91). The sequence of the H77 infectious clone (see above for details) was used to generate the sub-replicon which also contained the selectable marker G418 and the Renilla luciferase gene.
as §1, §2, §3

T1 sequence (P27958 1027-1711 C1454S/C1711G, one chain of several): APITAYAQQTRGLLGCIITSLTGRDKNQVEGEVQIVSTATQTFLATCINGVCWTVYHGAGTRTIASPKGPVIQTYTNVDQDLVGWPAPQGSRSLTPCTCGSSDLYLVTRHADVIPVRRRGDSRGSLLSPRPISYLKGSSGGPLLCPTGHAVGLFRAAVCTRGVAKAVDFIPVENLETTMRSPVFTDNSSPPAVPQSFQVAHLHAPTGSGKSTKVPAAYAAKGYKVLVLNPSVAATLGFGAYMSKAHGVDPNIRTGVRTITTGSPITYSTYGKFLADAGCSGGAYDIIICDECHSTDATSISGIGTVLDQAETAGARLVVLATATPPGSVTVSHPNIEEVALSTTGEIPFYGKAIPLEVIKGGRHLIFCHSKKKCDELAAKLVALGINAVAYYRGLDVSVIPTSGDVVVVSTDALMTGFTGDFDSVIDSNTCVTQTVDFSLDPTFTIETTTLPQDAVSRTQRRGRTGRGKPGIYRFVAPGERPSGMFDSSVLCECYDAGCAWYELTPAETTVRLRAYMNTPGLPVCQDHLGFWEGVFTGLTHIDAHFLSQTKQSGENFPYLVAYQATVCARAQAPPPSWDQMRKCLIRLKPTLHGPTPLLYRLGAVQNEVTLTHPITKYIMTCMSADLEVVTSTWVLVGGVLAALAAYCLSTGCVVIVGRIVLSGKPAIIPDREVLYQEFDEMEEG

Row | SMILES | EC50 [1] [nM] | IC50 [2] [nM] | EC50 [3] [nM]
1 | CC(C)(C)OC(=O)N[C@H](C(=O)N1C[C@]2(c3ccc(-c4ccccc4)cc3)C[C@H]1C(=O)N[C@@]1(C[C@H]1C(F)F)C(=O)NS(=O)(=O)C1(CCCCC/C=C\CS2)CC1)C(C)(C)C [Compound 2] | 33 | 4 | 95
2 | CC(C)(C)OC(=O)N[C@H](C(=O)N1C[C@]2(c3ccc(-c4ccccc4)cc3)C[C@H]1C(=O)N[C@@]1(C[C@H]1C(F)F)C(=O)NS(=O)(=O)C1(CCCCC/C=C/CS2)CC1)C(C)(C)C [Compound 1] | 21 | 2 | 49
